{"source": "patent US9734283B2", "about": "“Genomic features associated with epigenetic control regions and transgenerational inheritance of epimutations” (priority 2011, dated 2017)", "key": {"[1]": {"tested_on": "sperm promoter epigenome (DNA methylation)", "test": "MeDIP-Chip (Nimblegen promoter tiling array, competitive hybridization) of F3 sperm DNA with qPCR validation", "assay_type": "in vivo, mouse", "conditions": "F3 generation sperm", "protocol": "Sperm heads were separated from tails and purified following the protocol described^53 (without protease inhibitors) from a total of six F3 vinclozolin generation mice and six F3 control generation mice in the range of 13-15 months of age. Sperm heads were then further purified using a 70% sucrose gradient centrifugation, based on the method described.^54 Purified sperm heads were resuspended in 1 ml buffer 0.5M tris-HCl, pH 8, 0.5M EDTA, 10% SDS and treated with 100 μl proteinase K (20 mg/mL) and 100 μl DDT (0.1 M) at 55° C. for 1 hour. DNA was precipitated with 50% isopropanol, washed with 70% ethanol and resuspended in DEPC H20. Individual sperm DNA was used as samples for further methylated DNA immunoprecipitation.^15 Two pools of samples were produced for each experimental treatment (control and vinclozolin), therefore each pool contained DNA from three animals from different litters. The MeDIP was performed as follows: 6 μg of genomic DNA was subjected to series of three 20 pulse sonications at 20% amplitude and the appropriate fragment size (200-1000 bp) was verified through 2% agarose gels; the sonicated genomic DNA was resuspended in 350 μl TE and denaturated for 10 min at 95° C. and then immediately placed on ice for 5 min; 100 μl of 5×IP buffer (50 mM Na-phosphate pH7, 700 mM NaCl, 0.25% Triton X-100) was added to the sonicated and denatured DNA.\nAn overnight incubation of the DNA was performed with 5 μg of antibody anti-5-methylcytidine monoclonal from Diagenode S.A at 4° C. on a rotating platform. Protein A/G beads from Santa Cruz were prewashed on PBS-BSA 0.1% and resuspended in 40 μl 1× IP buffer. Beads were then added to the DNA-antibody complex and incubated 2 h at 4° C. on a rotating platform. Beads bound to DNA-antibody complex were washed 3 times with 1 ml 1×IP buffer; washes included incubation for 5 min at 4° C. on a rotating platform and then centrifugation at 6000 rpm for 2 min. Beads-DNA-antibody complex were then resuspended in 250 μl digestion buffer (50 mM Tris HCl pH 8, 10 mM EDTA, 0.5% SDS) and 3.5 μl of proteinase K (20 mg/ml) was added to each sample and then incubated overnight at 55° C. on a rotating platform. DNA purification was performed first with phenol and then with chloroform: isoamyl alcohol. Two washes were then performed with 70% ethanol, 1 M NaCl and glycogen. MeDIP-selected DNA was then resuspended in 30 μl TE buffer. MeDIP sperm DNA was pooled into each of the four above mentioned groups, adding equal amounts of sperm DNA from each individual sample to the pools. Therefore, a total of four pools of MeDIP sperm DNA (C1, C2, V1 and V2) were used for the ChIP arrays.\nNimblegen Mouse Promoter 3×720K format microarray (Mouse Ref Seq promoter array) was used, each subarray contains 709,520 probes. […]"}, "[2]": {"tested_on": "sperm promoter epigenome (DNA methylation)", "conditions": "previous comparative MeDIP-Chip study; cited from earlier work"}}}
{"smiles": "C=CC1(C)OC(=O)N(c2cc(Cl)cc(Cl)c2)C1=O", "note": "(racemic) [vinclozolin, (RS)-3-(3,5-dichlorophenyl)-5-methyl-5-vinyl-1,3-oxazolidine-2,4-dione]", "values": [{"measurement": "number of confirmed sites with decreased DNA methylation", "setting": "[1]; CD-1", "result": 12}, {"measurement": "number of confirmed sites with increased DNA methylation", "setting": "[1]; CD-1", "result": 28}, {"measurement": "number of promoters with differential DNA methylation regions (DMR), MeDIP-Chip", "setting": "[1]; CD-1, vinclozolin 100 mg/kg/day lineage vs control", "result": 66}, {"measurement": "number of DMR confirmed with qPCR", "setting": "[1]; CD-1, vinclozolin lineage vs control", "result": 40}, {"measurement": "number of promoters in rat sperm with transgenerational alteration in DNA methylation", "setting": "[2]", "result": 48}]}
